Reference: PubChem BioAssay AID2060486 (Molecular Pharmacology Branch, DTP, NCI, 2025)

System: IGROV1 complex spheroids (HUVEC, MSC), viability % test/control
Experiment: Anticancer human tumor IGROV1 cell line growth inhibition [GQUAD];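 further: spheroids exposed to compounds for 7 days before readout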
Conditions: for IC50: curve of first compound; for viability, T/C: stronger effect = lower value; active means viability on the fitted dose curve at most 10% of control; inactive means the rest
Text: DNA G-quadruplex Stabilizer Agents in Combinations in Complex Spheroids
A high-throughput screen of multi-cell type tumor spheroids was designed to identify active combinations of DNA G-quadruplex stabilizer agents and targeted small molecules. Complex spheroids include a stromal component modeled by human endothelial cells (HUVEC) and fibroblasts modeled by human mesenchymal stem cells (MSCs). The concentration ranges selected for each drug and investigational agent were based upon clinically achievable concentrations if the clinical Cmax of the agent was known.
Compounds. The drugs and investigational agents: pidnarulex (CX-5461; NSC782164), APTO-253 (NSC789042), BRACO-19 (NSC847499), peposertib (NSC802822), ceralasertib (NSC780249), elimusertib (NSC800525), camonsertib (NSC841442), AZD-1390 (NSC803789), olaparib (NSC753686), talazoparib (NSC767125), ART-558 (NSC835418), sotorasib (NSC818433), MRTX-1133 (NSC836407), SN-38 (NSC673596), topotecan (NSC609699), etoposide (NSC141540), doxorubicin (NSC123127), gemcitabine (NSC613327), 5-fluorouracil (NSC19893), paclitaxel (NSC125973), vemurafenib (NSC761431), panobinostat (NSC761190), R-306465 (JNJ-16241199; NSC773264), adavosertib (NSC754352), TP-3654 (NSC805149), carboplatin (NSC241240), KSQ-4279 (NSC840948), and staurosporine (NSC755774) were obtained from the National Cancer Institute (NCI) Developmental Therapeutics Program Chemical Repository (34). The FDA-approved anticancer drug set is available from the NCI Developmental Therapeutics Program. […] The stock solutions were prepared in dimethyl sulfoxide (DMSO, Sigma-Aldrich, St. Louis, MO, cat. D2650) at 800-fold the tested concentration and stored at -70 degrees C prior to their use. All drugs and investigational agents were tested over a range starting from a high concentration at or near the clinical Cmax and decreasing in half-log increments. If the clinical Cmax for an agent had not been determined, the highest concentration tested was 10 microM.
2.3 Cell Culture. All cells were maintained in an incubator at 37 degrees C and 5% CO2 with 95% humidity. The PDC lines were cultured according to standard operating procedures established by the NCI PDMR. All PDCs were thawed and cultured in Matrigel-coated flasks prepared with a working solution of 1X Ham's F-12 nutrient mix, without supplementation (Invitrogen, cat. 11765054), 100 U/mL penicillin-streptomycin (Invitrogen, cat. 15140122), and 2.5% Matrigel (Corning Inc., cat. 354248) for the first three passages. The 857933-349-R-J2-PDC line was cultured in 6C/Colon 1B media, which includes advanced DMEM/F-12 (Thermo Fisher Scientific, cat. 12634028), 10 mM HEPES (Thermo Fisher Scientific, cat. 15630080), 1X GlutaMAX supplement (Thermo Fisher Scientific, cat. 35050061), 0.1 mg/mL primocin (InvivoGen, cat. ant-pm-2), 10% defined fetal bovine serum, heat inactivated (HyClone Laboratories Inc., cat. SH30070.03HI), 50% L-WRN conditioned media (ATCC, cat. CRL-3276), 1.25 mM N-Acetyl-L-cysteine (Sigma-Aldrich, cat. A9165), 10 mM nicotinamide (Sigma-Aldrich, cat. N0636), 1X B-27 supplement (Thermo Fisher Scientific, cat. 17504044), 1X N-2 supplement (Thermo Fisher Scientific, cat. 17502048), 10 microM Y-27632 dihydrochloride (Tocris Bioscience, cat. 1254), and 50 ng/mL human EGF recombinant protein (Thermo Fisher Scientific, cat. PHG0311). The 485176-168-R4-J1-PDC line was cultured in Panc media, which includes all 6C/Colon 1B media components plus 100 ng/mL human FGF-10 (Thermo Fisher Scientific, cat. 100-26), 500 nM SB-431542 (Selleckchem, cat. S1067), and gastrin (Tocris, cat. 3006).
[…]

[1] = second compound 0.0316 µM, first compound 0.0316 µM
[2] = second compound 0.0316 µM, first compound 0.316 µM
[3] = second compound 0.1 µM, first compound 0.0316 µM
[4] = second compound 0.1 µM, first compound 0.316 µM
[5] = second compound 0.316 µM, first compound 0.0316 µM
[6] = second compound 0.316 µM, first compound 0.316 µM
[7] = second compound 1 µM, first compound 0.0316 µM
[8] = second compound 1 µM, first compound 0.316 µM
[9] = second compound 3.16 µM, first compound 0.0316 µM
[10] = second compound 3.16 µM, first compound 0.316 µM
[11] = second compound 10 µM, first compound 0.0316 µM
[12] = second compound 10 µM, first compound 0.316 µM

Cn1ncnc1[C@H]1c2n[nH]c(=O)c3cc(F)cc(c23)N[C@@H]1c1ccc(F)cc1 + CN(C)c1ccc(Nc2c3ccc(NC(=O)CCN4CCCC4)cc3nc3cc(NC(=O)CCN4CCCC4)ccc23)cc1
< 0.999 nM: IC50 (second compound 10 µM)
89.6 nM: IC50 (second compound 0.0316 µM)
56.5 nM: IC50 (second compound 3.16 µM)
127 nM: IC50 (second compound 0.316 µM)
42.8 nM: IC50 (second compound 0.1 µM)
93.4 nM: IC50 (second compound 1 µM)
inactive: viability, T/C (second compound 0.0316 µM, first compound 0.000999 µM) 99.9% | viability, T/C (second compound 0.0316 µM, first compound 0.00316 µM) 88.4% | viability, T/C (second compound 0.0316 µM, first compound 0.00999 µM) 95.1% | viability, T/C [1] 57% | viability, T/C (second compound 0.0316 µM, first compound 0.0999 µM) 58.4% | viability, T/C [2] 40.1% | viability, T/C (second compound 0.1 µM, first compound 0.000999 µM) 101% | viability, T/C (second compound 0.1 µM, first compound 0.00316 µM) 82.3% | viability, T/C (second compound 0.1 µM, first compound 0.00999 µM) 68.2% | viability, T/C [3] 46.2% | viability, T/C (second compound 0.1 µM, first compound 0.0999 µM) 49.7% | viability, T/C [4] 35.9% | viability, T/C (second compound 0.316 µM, first compound 0.000999 µM) 95.7% | viability, T/C (second compound 0.316 µM, first compound 0.00316 µM) 77.7% | viability, T/C (second compound 0.316 µM, first compound 0.00999 µM) 81.3% | viability, T/C [5] 52.2% | viability, T/C (second compound 0.316 µM, first compound 0.0999 µM) 61.5% | viability, T/C [6] 38.4% | viability, T/C (second compound 1 µM, first compound 0.000999 µM) 90.6% | viability, T/C (second compound 1 µM, first compound 0.00316 µM) 79% | viability, T/C (second compound 1 µM, first compound 0.00999 µM) 64.9% | viability, T/C [7] 65.4% | viability, T/C (second compound 1 µM, first compound 0.0999 µM) 57% | viability, T/C [8] 28.8% | viability, T/C (second compound 3.16 µM, first compound 0.000999 µM) 86.2% | viability, T/C (second compound 3.16 µM, first compound 0.00316 µM) 79.4% | viability, T/C (second compound 3.16 µM, first compound 0.00999 µM) 70.6% | viability, T/C [9] 58.1% | viability, T/C (second compound 3.16 µM, first compound 0.0999 µM) 42.1% | viability, T/C [10] 29.6% | viability, T/C (second compound 10 µM, first compound 0.000999 µM) 47.8% | viability, T/C (second compound 10 µM, first compound 0.00316 µM) 40.2% | viability, T/C (second compound 10 µM, first compound 0.00999 µM) 35.8% | viability, T/C [11] 35.1% | viability, T/C (second compound 10 µM, first compound 0.0999 µM) 26.9% | viability, T/C [12] 19.2%

O=C(c1cc(Cc2n[nH]c(=O)c3ccccc23)ccc1F)N1CCN(C(=O)C2CC2)CC1 + CN(C)c1ccc(Nc2c3ccc(NC(=O)CCN4CCCC4)cc3nc3cc(NC(=O)CCN4CCCC4)ccc23)cc1
2360 nM: IC50 (second compound 3.16 µM)
3730 nM: IC50 (second compound 0.316 µM)
inactive: viability, T/C [1] 87.2% | viability, T/C (second compound 0.0316 µM, first compound 0.1 µM) 81.6% | viability, T/C [2] 67.3% | viability, T/C (second compound 0.0316 µM, first compound 1 µM) 67.9% | viability, T/C (second compound 0.0316 µM, first compound 3.16 µM) 61.6% | viability, T/C (second compound 0.0316 µM, first compound 10 µM) 22.1% | viability, T/C [3] 92.9% | viability, T/C (second compound 0.1 µM, first compound 0.1 µM) 87.2% | viability, T/C [4] 83.9% | viability, T/C (second compound 0.1 µM, first compound 1 µM) 74.8% | viability, T/C (second compound 0.1 µM, first compound 3.16 µM) 67.6% | viability, T/C (second compound 0.1 µM, first compound 10 µM) 20.3% | viability, T/C [5] 66.1% | viability, T/C (second compound 0.316 µM, first compound 0.1 µM) 87.3% | viability, T/C [6] 78.4% | viability, T/C (second compound 0.316 µM, first compound 1 µM) 73.3% | viability, T/C (second compound 0.316 µM, first compound 3.16 µM) 54.3% | viability, T/C (second compound 0.316 µM, first compound 10 µM) 24.4% | viability, T/C [7] 62.2% | viability, T/C (second compound 1 µM, first compound 0.1 µM) 90.4% | viability, T/C [8] 86.9% | viability, T/C (second compound 1 µM, first compound 1 µM) 71.7% | viability, T/C (second compound 1 µM, first compound 3.16 µM) 66.1% | viability, T/C (second compound 1 µM, first compound 10 µM) 24.6% | viability, T/C [9] 58.3% | viability, T/C (second compound 3.16 µM, first compound 0.1 µM) 87.8% | viability, T/C [10] 78.6% | viability, T/C (second compound 3.16 µM, first compound 1 µM) 51.9% | viability, T/C (second compound 3.16 µM, first compound 3.16 µM) 49.9% | viability, T/C (second compound 3.16 µM, first compound 10 µM) 20.7% | viability, T/C [11] 50.9% | viability, T/C (second compound 10 µM, first compound 0.1 µM) 44.6% | viability, T/C [12] 38.4% | viability, T/C (second compound 10 µM, first compound 1 µM) 37.6% | viability, T/C (second compound 10 µM, first compound 3.16 µM) 30.1% | viability, T/C (second compound 10 µM, first compound 10 µM) 11.8%
4570 nM: IC50 (second compound 0.1 µM)
4880 nM: IC50 (second compound 1 µM)
< 31.6 nM: IC50 (second compound 10 µM)
3870 nM: IC50 (second compound 0.0316 µM)
